In patent EP1506285B1, “COMBINATIONS OF ANTI-DR5 ANTIBODIES AND ANTI-DR4 ANTIBODIES AND OTHER THERAPEUTIC AGENTS” (UAB RESEARCH FOUNDATION, priority 2001, dated 2003):
Residues, ends and D or L forms follow the SMILES beside them. *: point of attachment. Cbz = O=C(OCc1ccccc1)*; CH2F = FC*

Assays:
2LMP xenografts = test: Analysis of apoptosis in xenografts, TUNEL; format: in vivo, Athymic nude mice; conditions: day 14; TRA-8 100 µg i.p. days 7, 10; adriamycin 3 mg/kg or paclitaxel 10 mg/kg days 8, 11
Experimental: One group of mice was untreated. The xenografts were dissected for the study of apoptosis on day 14 after tumor cell injection. The reason for the substantial reduction in treatment intensity compared to our standard treatment protocol was to allow adequate tumor tissue for analysis on day 14. Tunel assay for apoptosis in tumor xenografts was performed as follows. Five-micron paraffin sections of tissue were mounted on Superfrost/Plus slides and heated at 58°C for 1 h. Tissue sections were deparaffinized in three changes of xylene and rehydrated with one change of absolute ethanol, 95% ethanol, and 70% ethanol, each in 5-min increments. Then, the sections were placed in Tris-buffered saline (0.5M Tris base, 0.15 M NaCl, 0.0002% Triton X-100, pH 7.6). Apoptotic nuclei were detected using an Apop Tag Peroxidase kit (Intergen, Purchase, NY). Proteinase K (20 µg/ml in distilled deionized H2O) was added to the tissue specimens and incubated at room temperature for 15 min. Endogenous peroxidases were quenched with an aqueous solution of 3% hydrogen peroxide for 5 min. Sections were treated with an equilibration buffer for 3 0 min and then incubated with the TdT/enzyme (diluted in labeling reaction mix) for 1 h at 37°C using parafilm covers. During this incubation, the TdT enzyme binds the 3'-OH ends of DNA fragments and catalyzes the addition of digoxigenin-labeled and unlabeled deoxynucleotides. Negative controls were incubated with distilled H2O (diluted in labeling reaction mix) instead of the TdT enzyme. A stop buffer was added for 10 min at room temperature to terminate the labeling reaction. An anti-digoxigenin conjugate was added to each slide for 30 min. The chromagen 3,3' DAB was used to visualize the labeled 3' OH end of DNA fragments. The slides were then rinsed in deionized water and lightly counterstained with hematoxylin, dehydrated using graded alcohols and xylene and coverlsipped using Permount. Approximately 10 random fields were evaluated for percentage of Tunel stained and percentage of intensely stained apoptotic bodies throughout the tissue.

2LMP s.c. tumors = test: TRA-8 therapy alone or with chemotherapy or radiation, breast cancer xenografts; format: in vivo, Athymic nude mice
Experimental: Athymic nude mice were injected s.c. with 3 x 10^7 2LMP cells. […] The growth of tumors was monitored over time. […] Tumor size and regression rates were determined.
Data from 6 independent experiments were analyzed by individual experiment. Treatment combinations were compared with respect to in vivo anti-tumor efficacy, i.e., inhibition of tumor growth, which was measured as three endpoints; extension of tumor doubling times, percentage of tumor regressions, and growth rates over time. The actual number of days at which the tumor doubled in surface area (product of two diameters) relative to baseline on day 7 after tumor cell injection was used in the doubling time analysis. The nonparametric Kruskal-Wallis test was used for median tumor doubling time comparisons between treatments. Fisher's exact test was used to compare the proportions of tumor regressions and relapse-free regressions across treatment groups. To determine if any combination therapy produced significant synergistic inhibition of tumor growth, i.e., more than additive, the growth curves from the serial area measurements were compared using a linear mixed model approach over the first 3 weeks after start of therapy (Lindsey, J.K. Models for Repeated Measurements, pp. 100-142, Oxford, 1993). To test for synergistic effects of the combination therapies, an interaction term was included in the model. If the interaction term was significant and the effect was inhibition of growth at a rate greater than additive then the interaction was considered synergistic.
A total of 166 animals, 10 treatment groups, and 6 independent experiments were included in the aggregate analysis. Treatment combinations were compared with respect to in vivo anti-tumor efficacy. The median tumor doubling times were analyzed using the Kruskal-Wallis test and Fisher's exact test was used to compare the proportions of tumor regressions and relapse-free regressions across treatment groups.

Jurkat cells = test: Cell viability / apoptosis induction in Jurkat cells; format: cell-based, human; conditions: 50 ng/ml TRA-8 overnight
Experimental: Cell viability is determined using (1) the ATPLite kit according to the manufacturer's instructions (Packard Instruments, Meriden, CT); (2) the MTT Cell proliferation/viability kit (Sigma); or (3) PI staining of dead cells and analyzed by flow cytometry. At end of culture, cells are stained with 10 µg/ml PI and PI negative cells are gated as viable cells. For analysis of condensed nuclei of hepatocytes, cells are stained with 10 ng/ml […] (Molecular Probes) and analyzed by flow cytometry.

[1] = biological target: human DR5/hIgG1 fusion protein (residues 1-180 of the extracellular portion of DR5 fused to the constant region of human IgG1; immunogen, ~50 kDa) (human) (UniProt O14763); test: ELISA on DR5-Ig, one-site binding model of non-linear regression
CLL B cells = test: Cytotoxicity to chronic lympholytic leukemia B cells in vitro; format: cell-based, human; conditions: five patients; compared to normal primary B cells
[2] = biological target: T1, human DR5, full length, on cells (human, UniProt O14763 56-440); test: radioisotope-labelled TRA-8 on a breast cancer cell line, compared with soluble TRAIL
T1 construct: whole, on cells; Used for Cos-7 cells transfected with full-length human DR5 cDNA and for human cells, cell lines and tissues that carry DR5 of their own; also called cell surface DR5; TRAIL-R2

## CC(=O)O[C@H]1C(=O)[C@@]2(C)[C@H]([C@H](OC(=O)c3ccccc3)[C@]3(O)C[C@H](OC(=O)[C@H](O)[C@@H](NC(=O)c4ccccc4)c4ccccc4)C(C)=C1C3(C)C)[C@]1(OC(C)=O)CO[C@@H]1C[C@@H]2O [Paclitaxel]
2LMP xenografts
  intense stained cells (TUNEL): 2%
  stained cells (TUNEL): 7%
2LMP s.c. tumors; TRA-8/paclitaxel experiment (Figure 26)
  complete regressions: none

## CC(NC(=O)C(NC(=O)OCc1ccccc1)C(C)C)C(=O)NC(CC(=O)O)C(=O)CF (stereo not drawn) [Z-VAD] (Cbz-Val-Ala-Asp-CH2F; configuration not given here)
Jurkat cells
  inhibition of TRA-8-mediated cell death by caspase inhibitor: completely inhibited

## soluble recombinant human TRAIL (FLAG-tagged, Alexis) (from UniProt P50591 95-281) (ligand)
[1]
  Kd: 59 nM

## TRA-8 anti-human DR5 monoclonal antibody
[1]
  Kd: 3 nM

## Cn1cc(C2=C(c3cn(CCCN)c4ccccc34)C(=O)NC2=O)c2ccccc21 [BisVIII, Bisindolylmaleimide VIII]
CLL B cells
  susceptibility of CLL B cells: sensitive

## COc1cccc2c1C(=O)c1c(O)c3c(c(O)c1C2=O)C[C@@](O)(C(=O)CO)C[C@@H]3O[C@H]1C[C@H](N)[C@H](O)[C@H](C)O1 [Adriamycin, doxorubicin]
2LMP xenografts
  intense stained cells (TUNEL): 6%
  stained cells (TUNEL): 8%
2LMP s.c. tumors; TRA-8/adriamycin experiment (Figure 25)
  complete regressions of tumor: no complete regressions
2LMP s.c. tumors; TRA-8/adriamycin experiment (Figure 25), 200 µg TRA-8, adriamycin 6 mg/kg i.v.
  tumor growth compared to untreated controls: did not differ from controls

B1: TRA-8 anti-human DR5 monoclonal antibody (antibody, mouse IgG1, kappa, V domains shown)
VH: EVMLVESGGGLVKPGGSLKLSCAASGFTFSSYVMSWVRQTPEKRLEWVATISSGGSYTYYPDSVKGRFTISRDNAKNTLYLQMSSLRSEDTAMYYCARRGDSMITTDYWGQGTTLTVSS
VL: DIVMTQSHKFMSTSVGDRVSITCKASQDVGTAVAWYQQKPGQSPKLLIYWASTRHTGVPDRFTGSGSGTDFTLTISNVQSEDLADYFCQQYSSYRTFGGGTKLEIKR
notes: Mouse IgG1, kappa; also called monoclonal anti-DR5 antibody (clone: TRA-8); mouse-mouse hybridoma TRA-8, ATCC PTA-1428
[2]
  fold higher binding activity than soluble TRAIL: ≥ 50 fold
